# Calls of active or inactive are those of the source. The calls were made as follows: active = viability on the fitted dose curve at most 10% of control; inactive = the rest.
# Tested on: NCI-H841 complex tumor spheroid viability
# Assay: Anticancer human tumor NCI-H841 cell line growth inhibition;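 as to IC50: spheroids exposed to compounds for 7 days before readout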;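 as to viability, T/C: spheroids exposed to compounds for 7 days before readout; 100% = DMSO vehicle control wells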
# Conditions: for IC50: curve of first compound; for viability, T/C: stronger effect = lower value
# Procedure, shortened: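 Single agents and combinations were tested on spheroids built from tumor cells plus HUVEC and hMSC, at half-log dilutions starting at or near clinical Cmax, else 10 microM; final DMSO 0.25% (v/v).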
compound,measurement,setting,value
CC(C)n1c(=O)n(C)c2cnc3cc(F)c(-c4ccc(OCCCN5CCCCC5)nc4)cc3c21 + Cn1nnc2c(C(N)=O)ncn2c1=O,IC50,second compound 1 µM,> 10 µM
same,IC50,second compound 3.16 µM,> 10 µM
same,IC50,second compound 10 µM,> 10 µM
same,IC50,second compound 31.6 µM,8.52 µM
same,IC50,second compound 100 µM,3.91 µM
same,"viability, T/C","second compound 1 µM, first compound 0.0316 µM",91.3%
same,"viability, T/C","second compound 1 µM, first compound 0.1 µM",93.5%
same,"viability, T/C","second compound 1 µM, first compound 0.316 µM",95.3%
same,"viability, T/C","second compound 1 µM, first compound 1 µM",92.3%
same,"viability, T/C","second compound 1 µM, first compound 3.16 µM",85.8%
same,"viability, T/C","second compound 1 µM, first compound 10 µM",57.5%
same,"viability, T/C","second compound 3.16 µM, first compound 0.0316 µM",94.5%
same,"viability, T/C","second compound 3.16 µM, first compound 0.1 µM",96.1%
same,"viability, T/C","second compound 3.16 µM, first compound 0.316 µM",99.9%
same,"viability, T/C","second compound 3.16 µM, first compound 1 µM",90.5%
same,"viability, T/C","second compound 3.16 µM, first compound 3.16 µM",89.3%
same,"viability, T/C","second compound 3.16 µM, first compound 10 µM",77.4%
same,"viability, T/C","second compound 10 µM, first compound 0.0316 µM",93.1%
same,"viability, T/C","second compound 10 µM, first compound 0.1 µM",94.1%
same,"viability, T/C","second compound 10 µM, first compound 0.316 µM",94.8%
same,outcome,"second compound 10 µM, first compound 1 µM",inactive
same,"viability, T/C","second compound 10 µM, first compound 3.16 µM",88%
same,"viability, T/C","second compound 10 µM, first compound 10 µM",62.4%
same,"viability, T/C","second compound 31.6 µM, first compound 0.0316 µM",91%
same,"viability, T/C","second compound 31.6 µM, first compound 0.1 µM",92.2%
same,"viability, T/C","second compound 31.6 µM, first compound 0.316 µM",87.9%
same,"viability, T/C","second compound 31.6 µM, first compound 1 µM",88.4%
same,"viability, T/C","second compound 31.6 µM, first compound 3.16 µM",76.2%
same,"viability, T/C","second compound 31.6 µM, first compound 10 µM",45.8%
same,"viability, T/C","second compound 100 µM, first compound 0.0316 µM",84.4%
same,"viability, T/C","second compound 100 µM, first compound 0.1 µM",82.8%
same,"viability, T/C","second compound 100 µM, first compound 0.316 µM",77.9%
same,"viability, T/C","second compound 100 µM, first compound 1 µM",75.9%
same,"viability, T/C","second compound 100 µM, first compound 3.16 µM",52.9%
same,"viability, T/C","second compound 100 µM, first compound 10 µM",35.5%
